According to US6737383B1, “Herbicidal oxadiazolidines” (priority 1999, dated 2004):

Legend:
bedstraw = test: Test B pre/postemergence bedstraw; format: in vivo, Galium aparine; details: Preemergence
In short: (§1)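 Response is a visual 0-to-10 score relative to untreated plants, where 0 means no effect and 10 means complete control, taken twelve to sixteen days after application. Treatments went onto soil at planting and onto foliage of 1- to 4-leaf plants, using a surfactant-containing non-phytotoxic solvent.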

blackgrass = test: Test B pre/postemergence blackgrass; format: in vivo, Alopecurus myosuroides
In short: as §1

surinam grass = test: Test B pre/postemergence surinam grass; format: in vivo, Brachiaria decumbens
In short: as §1

cocklebur = test: Test B pre/postemergence cocklebur; format: in vivo, Xanthium strumarium
In short: as §1

giant foxtail = test: Test B pre/postemergence giant foxtail; format: in vivo, Setaria faberii
In short: as §1

morningglory = test: Test B pre/postemergence morningglory; format: in vivo, Ipomoea hederacea
In short: as §1

pigweed = test: Test B pre/postemergence pigweed; format: in vivo, Amaranthus retroflexus
In short: as §1

rape = test: Test B pre/postemergence rape; format: in vivo, Brassica napus
In short: as §1

soybean = test: Test B pre/postemergence soybean; format: in vivo, Glycine max
In short: as §1

velvetleaf = test: Test B pre/postemergence velvetleaf; format: in vivo, Abutilon theophrasti; details: for Plant response rating, Velvetleaf: Rate 250 g/ha
In short: as §1

wheat = test: Test B pre/postemergence wheat; format: in vivo, Triticum aestivum; details: for Plant response rating, Wheat: Rate 250 g/ha
In short: as §1

wild oat = test: Test B pre/postemergence wild oat; format: in vivo, Avena fatua; details: for Plant response rating, Wild oats: Rate 250 g/ha
In short: as §1

purple nutsedge = test: Test B pre/postemergence purple nutsedge; format: in vivo, Cyperus rotundus
In short: as §1

smallflower flatsedge = test: Test B flood test smallflower flatsedge; format: in vivo, Cyperus difformis
In short: (§2)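 Flood test on plants grown to the 2-leaf stage; treated plants kept in greenhouse twelve to sixteen days, then visually rated against controls on a 0 (no effect) to 10 (complete control) scale.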

duck salad = test: Test B flood test duck salad; format: in vivo, Heteranthera limosa
In short: as §2

bamyardgrass = test: Test B flood test barnyardgrass; format: in vivo, Echinochloa crus-galli
In short: as §2

[1] = Postemergence, Rate 62 g/ha, scale 0 to 10, 0 is no effect, 10 is complete control
[2] = Postemergence, Rate 125 g/ha, scale of 0 to 10 where 0 is no effect and 10 is complete control
[3] = Postemergence, Rate 250 g/ha, scale 0 to 10, 0 no effect, 10 complete control
[4] = Preemergence, Rate 62 g/ha, scale 0 to 10 (0 no effect, 10 complete control)
[5] = Preemergence, Rate 125 g/ha, scale 0 to 10 (0 no effect, 10 complete control)
[6] = Preemergence, Rate 250 g/ha, scale of 0 to 10 where 0 is no effect and 10 is complete control
[7] = Preemergence, Rate 500 g/ha, scale 0 (no effect) to 10 (complete control)
[8] = Rate 500 g/ha, Postemergence, scale 0 to 10, 0 no effect, 10 complete control
[9] = Rate 250 g/ha, Postemergence, scale 0 to 10, 0 is no effect, 10 is complete control
[10] = Preemergence, Rate 125 g/ha, 0 is no effect, 10 is complete control
[11] = Preemergence, scale of 0 to 10 where 0 is no effect and 10 is complete control
[12] = Postemergence, scale 0 to 10, 0 is no effect, 10 is complete control
[13] = Postemergence (flood test species), Rate 125 g/ha, scale of 0 to 10 where 0 is no effect and 10 is complete control
[14] = Rate 250 g/ha, headed Pre-emergence (flood test species), scale 0 to 10 (0 no effect, 10 complete control)
[15] = Rate 500 g/ha, headed Pre-emergence (flood test species), scale 0 to 10 (0 no effect, 10 complete control)
[16] = Rate 500 g/ha, listed under Postemergence (flood test species), scale 0 to 10, 0 no effect, 10 complete control
[17] = Rate 2000 g/ha, Pre-emergence (as headed), scale 0 to 10
[18] = Rate 1000 g/ha, Pre-emergence (as headed), scale 0 to 10
[19] = flood test, listed under Postemergence, Rate 250 g/ha, scale 0 to 10, 0 no effect, 10 complete control

Compound: CC(C)N(C(=O)n1oc(=O)n(Cc2ccccc2)c1=O)c1ccccc1 [Compound 94]
- Bedstraw plant response rating (bedstraw; Rate 62 g/ha, scale 0 to 10 (0 no effect, 10 complete control)): 0
- Plant response rating, Bedstraw (bedstraw; Rate 125 g/ha, scale 0 to 10 (0 no effect, 10 complete control)): 0
- Plant response rating, Bedstraw (bedstraw; Rate 250 g/ha, scale of 0 to 10 where 0 is no effect and 10 is complete control): 0
- Bedstraw plant response rating (bedstraw; Rate 500 g/ha, scale 0 (no effect) to 10 (complete control)): 0
- Blackgrass plant response rating (blackgrass; [1]): 0
- Blackgrass plant response rating (blackgrass; [2]): 0
- Blackgrass plant response rating (blackgrass; [3]): 3
- Blackgrass plant response rating (blackgrass; [4]): 0
- Plant response rating, Blackgrass (blackgrass; [5]): 1
- Plant response rating, Blackgrass (blackgrass; [6]): 8
- Blackgrass plant response rating (blackgrass; [7]): 9
- Blackgrass plant response rating (blackgrass; [8]): 6
- B. signalgrass plant response rating (surinam grass; [1]): 0
- B. signalgrass plant response rating (surinam grass; [3]): 0
- B. signalgrass plant response rating (surinam grass; [4]): 0
- Plant response rating, B. signalgrass (surinam grass; [5]): 1
- Plant response rating, B. signalgrass (surinam grass; [6]): 1
- B. signalgrass plant response rating (surinam grass; [7]): 5
- B. signalgrass plant response rating (surinam grass; Rate 125 g/ha, Postemergence, scale 0 to 10, 0 no effect, 10 complete control): 0
- B. signalgrass plant response rating (surinam grass; Rate 500 g/ha, Postemergence, scale of 0 to 10 where 0 is no effect and 10 is complete control): 2
- Cocklebur plant response rating (cocklebur; [1]): 0
- Cocklebur plant response rating (cocklebur; [2]): 1
- Cocklebur plant response rating (cocklebur; [3]): 1
- Cocklebur plant response rating (cocklebur; [4]): 0
- Plant response rating, Cocklebur (cocklebur; [5]): 0
- Plant response rating, Cocklebur (cocklebur; [6]): 0
- Cocklebur plant response rating (cocklebur; [8]): 3
- Giant foxtail plant response rating (giant foxtail; [1]): 0
- Giant foxtail plant response rating (giant foxtail; [2]): 0
- Giant foxtail plant response rating (giant foxtail; [3]): 5
- Giant foxtail plant response rating (giant foxtail; [4]): 8
- Plant response rating, Giant foxtail (giant foxtail; [5]): 9
- Plant response rating, Giant foxtail (giant foxtail; [6]): 9
- Giant foxtail plant response rating (giant foxtail; [7]): 10
- Giant foxtail plant response rating (giant foxtail; [8]): 8
- Morningglory plant response rating (morningglory; [1]): 10
- Morningglory plant response rating (morningglory; [2]): 10
- Morningglory plant response rating (morningglory; [3]): 10
- Morningglory plant response rating (morningglory; [4]): 0
- Plant response rating, Morningglory (morningglory; [5]): 0
- Plant response rating, Morningglory (morningglory; [6]): 0
- Morningglory plant response rating (morningglory; [7]): 0
- Morningglory plant response rating (morningglory; [8]): 10
- Redroot pigweed plant response rating (pigweed; [1]): 0
- Redroot pigweed plant response rating (pigweed; [2]): 0
- Redroot pigweed plant response rating (pigweed; [4]): 0
- Plant response rating, Redroot pigweed (pigweed; [5]): 0
- Plant response rating, Redroot pigweed (pigweed; [6]): 0
- Redroot pigweed plant response rating (pigweed; [7]): 4
- Plant response rating, Redroot pigweed (pigweed; [9]): 2
- Redroot pigweed plant response rating (pigweed; [8]): 4
- Rape plant response rating (rape; [1]): 1
- Rape plant response rating (rape; [2]): 2
- Rape plant response rating (rape; [3]): 2
- Rape plant response rating (rape; [4]): 0
- Plant response rating, Rape (rape; [5]): 0
- Plant response rating, Rape (rape; [6]): 2
- Rape plant response rating (rape; [7]): 5
- Rape plant response rating (rape; [8]): 3
- Soybean plant response rating (soybean; [1]): 5
- Soybean plant response rating (soybean; [2]): 5
- Soybean plant response rating (soybean; [4]): 0
- Plant response rating, Soybean (soybean; [5]): 0
- Plant response rating, Soybean (soybean; [6]): 0
- Soybean plant response rating (soybean; [7]): 0
- Plant response rating, Soybean (soybean; [9]): 5
- Soybean plant response rating (soybean; [8]): 5
- Velvetleaf plant response rating (velvetleaf; [1]): 0
- Velvetleaf plant response rating (velvetleaf; [2]): 0
- Velvetleaf plant response rating (velvetleaf; [4]): 0
- Velvetleaf plant response rating (0 to 10 scale) (velvetleaf; [10]): 0
- Plant response rating, Velvetleaf (velvetleaf; [11]): 0
- Velvetleaf plant response rating (velvetleaf; [7]): 3
- Plant response rating, Velvetleaf (velvetleaf; [12]): 4
- Velvetleaf plant response rating (velvetleaf; [8]): 6
- Wheat plant response rating (wheat; [1]): 0
- Wheat plant response rating (wheat; [2]): 0
- Wheat plant response rating (wheat; [4]): 0
- Wheat plant response rating (0 to 10 scale) (wheat; [10]): 0
- Plant response rating, Wheat (wheat; [11]): 0
- Wheat plant response rating (wheat; [7]): 0
- Plant response rating, Wheat (wheat; [12]): 0
- Wheat plant response rating (wheat; [8]): 0
- Wild oats plant response rating (wild oat; [1]): 0
- Wild oats plant response rating (wild oat; [2]): 0
- Wild oats plant response rating (wild oat; [4]): 0
- Wild oats plant response rating (0 to 10 scale) (wild oat; [10]): 3
- Plant response rating, Wild oats (wild oat; [11]): 4
- Wild oats plant response rating (wild oat; [7]): 6
- Plant response rating, Wild oats (wild oat; [12]): 0
- Wild oats plant response rating (wild oat; [8]): 1
- Nutsedge plant response rating (purple nutsedge; [1]): 0
- Nutsedge plant response rating (purple nutsedge; [2]): 0
- Nutsedge plant response rating (purple nutsedge; [3]): 0
- Nutsedge plant response rating (purple nutsedge; [4]): 0
- Plant response rating, Nutsedge (purple nutsedge; [5]): 0
- Plant response rating, Nutsedge (purple nutsedge; [6]): 0
- Nutsedge plant response rating (purple nutsedge; [7]): 0
- Nutsedge plant response rating (purple nutsedge; [8]): 0
- S. Flatsedge plant response rating (smallflower flatsedge; [13]): 0
- S. Flatsedge plant response rating (smallflower flatsedge; [1]): 0
- S. Flatsedge plant response rating (smallflower flatsedge; Pre-emergence, Rate 1000 g/ha, scale 0 to 10 (0 no effect, 10 complete control)): 0
- Plant response rating, S. Flatsedge (smallflower flatsedge; Rate 250 g/ha, Postemergence (flood test), scale 0 to 10, 0 is no effect, 10 is complete control): 0
- S. Flatsedge plant response rating (smallflower flatsedge; [14]): 0
- Plant response rating, S. Flatsedge (smallflower flatsedge; [15]): 0
- S. Flatsedge plant response rating (smallflower flatsedge; [16]): 9
- S. Flatsedge plant response rating (smallflower flatsedge; [17]): 8
- Ducksalad plant response rating (duck salad; [13]): 0
- Ducksalad plant response rating (duck salad; [1]): 0
- Ducksalad plant response rating (duck salad; [14]): 0
- Plant response rating, Ducksalad (duck salad; [15]): 0
- Ducksalad plant response rating (duck salad; [16]): 2
- Ducksalad plant response rating (duck salad; [18]): 0
- Ducksalad plant response rating (duck salad; [17]): 0
- Ducksalad plant response rating (duck salad; [19]): 0
- Barnyardgrass plant response rating (bamyardgrass; [1]): 0
- Barnyardgrass plant response rating (bamyardgrass; Rate 125 g/ha, Postemergence section (flood test species), scale 0 to 10, 0 no effect, 10 complete control): 0
- Barnyardgrass plant response rating (bamyardgrass; [14]): 0
- Plant response rating, Barnyardgrass (bamyardgrass; [15]): 0
- Barnyardgrass plant response rating (bamyardgrass; [16]): 9
- Barnyardgrass plant response rating (bamyardgrass; [18]): 0
- Barnyardgrass plant response rating (bamyardgrass; Rate 2000 g/ha, Pre-emergence (as headed), scale 0 to 10, 0 no effect, 10 complete control): 7
- Barnyardgrass plant response rating (bamyardgrass; [19]): 0
